Data as given in article PMC4664966, “Discovery and characterization of novel inhibitors of the sodium-coupled citrate transporter (NaCT or SLC13A5)” (Scientific Reports, 2015).
One block for each compound: values may come before it.

Key:
HEK-293-derived cells = experiment: Cell viability, CellTiter-glo, HEK-293-derived cells; design: species or system human; conditions: HEK-293-derived cell-based assay conditions
Description: For cell viability, cells are incubated with compound for 90 minutes at 37 °C. Following this incubation, 25 μL Cell Titer-Glo (Promega) was added to the plates which were then analyzed on the Envision (luminescence).

human hepatocytes = experiment: Incorporation of [14C]-citrate into triglycerides by human hepatocytes; format: cell-based; conditions: radiolabeled citrate for 24 hours
Description: Incorporation of [^14C]-citrate into triglycerides by human hepatocytes was measured using the same procedure as above except cells were incubated with the radioactive citrate for 24 hours. Subsequently, the media was aspirated and 100 μL of isopropyl alcohol:THF (9:1) was added. The plate was shaken for 15 minutes, centrifuged at 3000 revolutions per minute for 5 minutes, and 50 μL of supernatant from each well was applied per TLC lane (Whatman LK6D Silica Gel Plates). Radiolabeled lipids were resolved using a 2-solvent system: Solvent 1 contained a 100:100:100:40:36 mixture of ethyl acetate:isopropyl alcohol:CHCl3:MeOH:0.25% KCl and Solvent 2 a 70:27:3 hexane:diethyl ether:acetic acid mixture. The TLC plate was dried under nitrogen for 30 minutes and [^14C]-standards added to a vacant lane. Bands were visualized and quantitated using a Molecular Dynamics’ Storm 860 PhosphorImager system following 18–36 hours exposure to a Phosphorimager screen.

[1] = Intra-/extracellular unbound concentration ratio (Kpuu) in human hepatocytes; format: in vitro ADME; conditions: cryopreserved hepatocytes, ratio of free intracellular and media concentration after 1 h incubation at 1 μM, geometric mean of 3 replicates ± SD
Description: (§1) kpuu values were determined by measuring total cell and media concentrations corrected for their respective fraction unbound. Detailed methods to determine intra- and extracellular concentrations of compound in the HEKNaCT cells and human hepatocytes will be the subject of a separate manuscript that is under preparation. […]
(§2) Intra- and extracellular concentrations of compound in cellular assays. kpuu values were determined by measuring total cell and media concentrations corrected for their respective […]
(§3) fraction unbound. […]
(§4) The solution was heated to reflux until the total volume was reduced to ~25 mL.
(§5) Hexane (25 mL) was added and the mixture was brought back to reflux than allowed to slowly cool to room temperature. After standing at room temperature for 16 h, the resulting suspension was filtered and dried under high vacuum to yield (S)-2-(4-(tert-butyl)phenethyl)-2-hydroxysuccinic acid (3) as a white solid. The filtrate was allowed to stand at room temperature for 4 days. The solvent evaporated to ~15 mL and large, colorless crystals formed.
(§6) X-ray analysis. Data collection was performed on a Bruker APEX diffractometer at room temperature. Data collection consisted of 3 omega scans and low angle and three at high angle; each with 0.5 step. In addition, 2 phi scans were collected to improve the quality of the […]

[2] = Intra-/extracellular unbound concentration ratio (Kpuu) in HEKNaCT cells; format: in vitro ADME; conditions: human, ratio of free intracellular and media concentration after 1 h incubation at 1 μM, geometric mean of 3 replicates ± SD
Description: as §1, §2, §3, §4, §5, §6

HEKNaCT cells [3] = experiment: OCR and ECAR measurements in HEKNaCT cells incubated with citrate (Seahorse); format: cell-based, human; conditions: 30 μM compound
Description: HEKNaCT cells were plated at 12,000 cells/well onto a poly-d-lysine coated XF96 plate (Sigma, Seahorse Biosciences). Cells were plated in culture media containing HG DMEM, 10% FBS, 2 mM glutamine, 1 mM pyruvate, 0.5 mg/mL Geneticin, and 1% penicillin/streptomycin (Life Technologies) and incubated overnight at 37 °C. The following day, the media was changed to Seahorse Biosciences assay medium (Seahorse Biosciences) supplemented with 10 mM glucose and 2 mM pyruvate (Sigma). The plate was pre-incubated for 1 hour in a 37 °C air incubator. […]

NaDC1 (SLC13A2) = molecular target: T1, NaDC1 (SLC13A2) (Homo sapiens, UniProt Q13183); experiment: Inhibition of citrate or succinate uptake in HEKNaDC1 cells; format: cell-based; conditions: compound 4: mean of 2 replicates
T1 construct: host or cells: HEK-293, transient (Fugene HD)
T1 sequence (Q13183 1-592): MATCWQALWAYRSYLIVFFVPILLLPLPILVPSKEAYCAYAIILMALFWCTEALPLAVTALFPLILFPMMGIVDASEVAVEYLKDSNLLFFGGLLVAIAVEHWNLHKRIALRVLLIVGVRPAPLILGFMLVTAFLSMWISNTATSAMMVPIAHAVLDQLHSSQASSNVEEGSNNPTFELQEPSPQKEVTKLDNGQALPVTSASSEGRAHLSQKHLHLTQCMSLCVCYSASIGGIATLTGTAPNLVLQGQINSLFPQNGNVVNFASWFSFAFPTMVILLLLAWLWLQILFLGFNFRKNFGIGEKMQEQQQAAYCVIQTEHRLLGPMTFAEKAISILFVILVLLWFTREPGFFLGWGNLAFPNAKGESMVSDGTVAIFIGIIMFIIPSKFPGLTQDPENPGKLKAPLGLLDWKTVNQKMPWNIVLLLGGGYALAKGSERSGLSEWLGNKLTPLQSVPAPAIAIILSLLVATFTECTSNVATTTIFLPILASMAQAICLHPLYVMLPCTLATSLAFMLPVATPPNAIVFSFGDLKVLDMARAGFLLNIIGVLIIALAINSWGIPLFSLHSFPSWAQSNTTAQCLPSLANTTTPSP
Excerpt: (§7) Protocols to generate the stable cell line overexpressing NaCT or cell transfection with SLC13A2 or SLC13A3 can be found in the supporting information. HEK-293 cells stably transfected with the human sodium Citrate transporter SLC13A5 or transiently transfected with the human SLC13A2 or SLC13A3 transporter were removed from the flasks with dissociation buffer and re-suspended in an equal volume of growth media (DMEM, High Glucose supplemented with 10% heat inactivated fetal bovine serum and 500 μg/ml Geneticin). For the transient transfections, Geneticin was eliminated from the media. Cell suspensions were centrifuged at 1,000 rpm for approximately 5 minutes. Resulting cell pellets were re-suspended in growth media and placed in a 37 °C water bath for approximately 10 minutes prior to a final spin at 1,000 rpm. Following this spin the resulting cell pellets were re-suspended in assay buffer, 142 mM NaCl (or 142 mM choline chloride), 5 mM KCl, 1.2 mM MgSO4, 1.5 mM CaCl, 5 mM glucose and 25 mM HEPES pH 7.4. Cell suspensions were counted and the concentration adjusted as needed with assay buffer to 2e[6] viable cells /mL. 20 μL of cell suspension were added to 384-well cyotstar-T plates followed by the addition of 5 μL of 10× concentration of compound. Cells and compound were incubated at 37 °C for approximately 30 minutes prior to the addition of 25 μL of 300 μM citric acid (16 μM radiolabeled [^14C]-citric acid and 284 μM cold citric acid) to make a 150 μM final concentration of citric acid or 21 μM [^14C]-succinic acid. After substrate addition, the uptake of radioactivity was monitored on Perkin Elmer Microbeta plate reader. Data from reads between 45–90 minutes was used to assess the ability of test compounds to inhibit the uptake of citric or succinic acid. […]
(§8) were plated, and incubated for 48 hours. Following the incubation, NaDC1 and NaDC3 assays were executed identical to the procedure for NaCT. […]
(§9) The solution was heated to reflux until the total volume was reduced to ~25 mL. […]

NaDC3 (SLC13A3) = molecular target: T2, NaDC3 (SLC13A3) (Homo sapiens, UniProt Q8WWT9); experiment: Inhibition of citrate or succinate uptake in HEKNaDC3 cells; format: cell-based; conditions: compound 4: mean of 2 replicates
T2 construct: host or cells: HEK-293, transient (Fugene HD)
T2 sequence (Q8WWT9 1-602): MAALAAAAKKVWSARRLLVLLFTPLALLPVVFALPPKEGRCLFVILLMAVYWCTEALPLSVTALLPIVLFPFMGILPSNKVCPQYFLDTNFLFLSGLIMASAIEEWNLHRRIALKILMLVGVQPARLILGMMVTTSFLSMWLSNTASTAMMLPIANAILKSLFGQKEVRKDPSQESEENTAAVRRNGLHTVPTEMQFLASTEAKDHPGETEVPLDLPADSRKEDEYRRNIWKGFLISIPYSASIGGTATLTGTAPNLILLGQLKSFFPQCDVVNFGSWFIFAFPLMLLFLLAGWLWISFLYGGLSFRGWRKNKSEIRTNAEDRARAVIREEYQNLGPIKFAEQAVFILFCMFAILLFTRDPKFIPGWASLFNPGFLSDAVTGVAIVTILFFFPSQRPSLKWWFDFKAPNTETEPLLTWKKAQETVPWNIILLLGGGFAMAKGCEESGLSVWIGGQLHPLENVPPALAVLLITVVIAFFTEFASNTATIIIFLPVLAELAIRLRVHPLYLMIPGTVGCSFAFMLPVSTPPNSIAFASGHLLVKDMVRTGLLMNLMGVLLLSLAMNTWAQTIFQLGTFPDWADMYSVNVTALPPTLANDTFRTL
Excerpt: as §7, §8, §9

[4] = Stability in human hepatocytes; format: in vitro ADME; conditions: metabolically competent human hepatocytes
HEKNaCT cells [5] = experiment: Stability in HEKNaCT cells; format: in vitro ADME, human; conditions: data not shown
[6] = Passive permeability, MDCK-LE cell monolayer; format: in vitro ADME; conditions: dog, MDCK; read-out: Papp (passive permeability)
Description: Passive permeability was assessed using MDCK-LE cell monolayer as described previously in Di et al., (2011)[44].

[7] = molecular target: T3, NaCT in cryopreserved human hepatocytes (Homo sapiens, UniProt Q86YT5); experiment: Inhibition of citrate uptake in cryopreserved human hepatocytes; format: cell-based; conditions: geometric mean of at least 3 replicates
T3 construct: the transporter was in its native environment, we used cryopreserved human hepatocytes; endogenous in cells; host or cells: cryopreserved human hepatocytes
T3 sequence (Q86YT5 whole entry): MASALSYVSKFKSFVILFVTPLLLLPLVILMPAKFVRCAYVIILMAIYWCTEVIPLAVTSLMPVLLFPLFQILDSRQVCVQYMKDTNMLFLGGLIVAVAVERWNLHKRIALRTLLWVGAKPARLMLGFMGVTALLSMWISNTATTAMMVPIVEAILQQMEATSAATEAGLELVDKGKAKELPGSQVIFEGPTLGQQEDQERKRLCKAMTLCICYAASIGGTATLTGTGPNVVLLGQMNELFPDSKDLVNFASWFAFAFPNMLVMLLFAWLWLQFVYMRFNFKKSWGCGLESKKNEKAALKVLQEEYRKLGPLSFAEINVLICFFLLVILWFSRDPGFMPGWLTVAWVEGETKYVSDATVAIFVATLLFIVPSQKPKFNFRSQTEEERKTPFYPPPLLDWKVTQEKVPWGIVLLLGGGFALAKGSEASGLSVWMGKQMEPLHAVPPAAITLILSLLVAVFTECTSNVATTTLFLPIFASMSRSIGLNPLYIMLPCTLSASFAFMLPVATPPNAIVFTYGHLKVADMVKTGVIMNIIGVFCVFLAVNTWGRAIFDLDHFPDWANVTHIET

NaCT (SLC13A5) = NaCT (SLC13A5) (Homo sapiens, UniProt Q86YT5); experiment: Inhibition of citrate uptake in HEKNaCT cells; format: cell-based; conditions: geometric mean of at least 3 replicates
Chain of NaCT (SLC13A5) (Q86YT5 whole entry): as above
Description: HEK-293 cells stably transfected with the human sodium Citrate transporter SLC13A5 or transiently transfected with the human SLC13A2 or SLC13A3 transporter were removed from the flasks with dissociation buffer and re-suspended in an equal volume of growth media (DMEM, High Glucose supplemented with 10% heat inactivated fetal bovine serum and 500 μg/ml Geneticin). For the transient transfections, Geneticin was eliminated from the media. Cell suspensions were centrifuged at 1,000 rpm for approximately 5 minutes. Resulting cell pellets were re-suspended in growth media and placed in a 37 °C water bath for approximately 10 minutes prior to a final spin at 1,000 rpm. […] Cell suspensions were counted and the concentration adjusted as needed with assay buffer to 2e[6] viable cells /mL. 20 μL of cell suspension were added to 384-well cyotstar-T plates followed by the addition of 5 μL of 10× concentration of compound. […] After substrate addition, the uptake of radioactivity was monitored on Perkin Elmer Microbeta plate reader. Data from reads between 45–90 minutes was used to assess the ability of test compounds to inhibit the uptake of citric or succinic acid.

Stability in assay media = format: in vitro ADME; conditions: read-out: t1/2 in assay media
parental HEK-293 cells = experiment: Whole cell binding experiments with [3H]-2, parental HEK-293 cells; design: species or system human; conditions: 75 nM
Description: Parental HEK-293 cells or HEK-293 cells expressing SLC13A5 were incubated with [^3H]-2 at 75 nM. See supplemental methods for additional details. […]
were plated, and incubated for 48 hours. Following the incubation, NaDC1 and NaDC3 assays were executed identical to the procedure for NaCT.
Binding experiments with [3H]-2. Parental HEK-293 cells or cells overexpressing SLC13A5 were incubated in the media with 75 nM of [3H]-2. These cells were also incubated with either 0, […]
was monitored for 2-hours. The uptake of radioactivity was monitored on Perkin Elmer Microbeta plate reader. In experiments in which cold 2 was added to the media, after 2-hours, the cells were washed 3x with PBS, and then in fresh media 100 μM cold 2 was added for 2-hours and the disappearance of radioactivity was monitored using a Perkin Elmer Microbeta […]
Intra- and extracellular concentrations of compound in cellular assays. kpuu values were determined by measuring total cell and media concentrations corrected for their respective fraction unbound. Detailed methods to determine intra- and extracellular concentrations of […]
Crystallization and X-ray analysis of (S)-2-(4-(tert-butyl)phenethyl)-2-hydroxysuccinic […]
Crystallization conditions. Ethyl acetate (50 mL) was added to (S)-2-(4-(tert-butyl)phenethyl)- 2-hydroxysuccinic acid (3) ([…], 46.2 mmol). The suspension turned to a solution upon heating. […]

SMILES: CC(C)(C)c1ccc(CCC(O)(CC(=O)O)C(=O)O)cc1 (stereo not drawn) [Compound 1]
cellular toxicity (CellTiter-glo assessment) (HEK-293-derived cells): No cellular toxicity

SMILES: O=C(O)C[C@](O)(CCc1ccc(I)cc1)C(=O)O [Compound 4]
IC50 (NaDC1 (SLC13A2)): 5.5 µM
IC50 (NaDC3 (SLC13A3)): 3.2 µM

SMILES: [3H]C([3H])(c1ccc(C(C)(C)C)cc1)C([3H])([3H])[C@@](O)(CC(=O)O)C(=O)O [[^3H]-2]
interaction with parental HEK-293 cells (parental HEK-293 cells): no significant interaction

More lines, main results first:

Kp uu at 1 h, 1 µM [1]: 0.4 ± 0.1
Kp uu at 1 h, 1 µM [2]: 0.6 ± 0.2
SMILES: CC(C)(C)c1ccc(CC[C@](O)(CC(=O)O)C(=O)O)cc1 [Compound 3, (S)-2-(4-(tert-butyl)phenethyl)-2-hydroxysuccinic acid]
label incorporation in TAG (human hepatocytes): not
effect on citrate induced increase in oxygen consumption rate (OCR) (HEKNaCT cells [3]): not
effect on citrate suppressed extracellular acidification rate (ECAR) (HEKNaCT cells [3]; citrate): not

half-life [4]: 29 min
stability in HEKNaCT cells (HEKNaCT cells [5]): stable
Papp [6]: 13 ×10⁻⁶ cm/s
IC50 [7]: 6.76 µM
IC50 (NaCT (SLC13A5)): > 25 µM
half-life (Stability in assay media): > 120 min
SMILES: CCOC(=O)[C@@](O)(CCc1ccc(C(C)(C)C)cc1)CC(=O)O [Compound 5]
